Experimental findings from PMC6757289, “Design and Characterization of SGK3-PROTAC1, an Isoform Specific SGK3 Kinase PROTAC Degrader” (ACS Chemical Biology, 2019) are described below.

Test in all cases: kinase profiling panel
What all share (format): biochemical
Holding throughout (details): read-out: % Activity Remaining

In one experiment the target is SRPK1 (Homo sapiens, UniProt Q96SB4). An excerpt:
(§1) Protein kinase profiling against a Dundee panel of 140 protein kinases was undertaken at the International Centre for Protein Kinase Profiling. The result for each kinase was presented as a mean kinase activity of the reaction taken in triplicate relative to a control sample treated with DMSO. Assay conditions and abbreviations are available at http://www.kinase-screen.mrc.ac.uk.

The target in the next experiment is T1, LKB1 (Homo sapiens, UniProt Q15831).
T1 sequence (Q15831 1-433): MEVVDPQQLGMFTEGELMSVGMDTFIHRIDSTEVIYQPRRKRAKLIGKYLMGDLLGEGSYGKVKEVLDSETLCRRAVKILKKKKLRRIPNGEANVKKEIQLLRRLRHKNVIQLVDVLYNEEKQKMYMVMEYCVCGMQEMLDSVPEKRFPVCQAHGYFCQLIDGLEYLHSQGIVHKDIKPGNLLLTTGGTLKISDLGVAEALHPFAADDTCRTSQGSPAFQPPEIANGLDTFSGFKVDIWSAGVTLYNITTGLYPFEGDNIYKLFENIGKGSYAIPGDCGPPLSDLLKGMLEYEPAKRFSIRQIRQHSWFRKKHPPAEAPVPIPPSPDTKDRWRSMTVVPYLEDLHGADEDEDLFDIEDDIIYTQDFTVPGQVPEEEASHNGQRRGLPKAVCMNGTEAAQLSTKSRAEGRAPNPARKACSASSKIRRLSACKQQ
T1 sequence (Q7RTN6 1-431 partner): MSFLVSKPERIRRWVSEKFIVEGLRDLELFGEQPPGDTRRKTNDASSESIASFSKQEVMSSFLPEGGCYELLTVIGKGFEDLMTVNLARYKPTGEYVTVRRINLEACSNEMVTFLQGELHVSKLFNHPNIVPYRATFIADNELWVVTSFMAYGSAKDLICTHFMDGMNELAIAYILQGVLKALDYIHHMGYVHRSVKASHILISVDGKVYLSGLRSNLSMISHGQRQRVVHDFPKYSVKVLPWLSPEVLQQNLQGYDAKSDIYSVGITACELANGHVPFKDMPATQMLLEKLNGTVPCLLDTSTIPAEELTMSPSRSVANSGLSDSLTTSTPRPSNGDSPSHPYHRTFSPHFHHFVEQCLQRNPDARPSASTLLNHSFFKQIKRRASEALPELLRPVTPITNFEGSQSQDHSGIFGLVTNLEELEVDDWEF
T1 sequence (Q9Y376 1-341 partner): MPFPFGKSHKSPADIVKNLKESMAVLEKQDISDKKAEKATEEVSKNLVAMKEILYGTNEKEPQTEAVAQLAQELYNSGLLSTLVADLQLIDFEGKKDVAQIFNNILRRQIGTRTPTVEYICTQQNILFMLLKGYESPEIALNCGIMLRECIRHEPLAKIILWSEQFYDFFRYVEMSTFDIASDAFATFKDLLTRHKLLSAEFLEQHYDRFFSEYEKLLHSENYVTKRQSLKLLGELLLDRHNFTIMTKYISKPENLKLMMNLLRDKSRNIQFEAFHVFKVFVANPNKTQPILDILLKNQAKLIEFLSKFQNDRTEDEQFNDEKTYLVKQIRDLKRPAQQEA
Text: as §1

The target of a further experiment is T2, p38 gamma MAPK (Homo sapiens, UniProt P53778).
T2 sequence (P53778 1-367): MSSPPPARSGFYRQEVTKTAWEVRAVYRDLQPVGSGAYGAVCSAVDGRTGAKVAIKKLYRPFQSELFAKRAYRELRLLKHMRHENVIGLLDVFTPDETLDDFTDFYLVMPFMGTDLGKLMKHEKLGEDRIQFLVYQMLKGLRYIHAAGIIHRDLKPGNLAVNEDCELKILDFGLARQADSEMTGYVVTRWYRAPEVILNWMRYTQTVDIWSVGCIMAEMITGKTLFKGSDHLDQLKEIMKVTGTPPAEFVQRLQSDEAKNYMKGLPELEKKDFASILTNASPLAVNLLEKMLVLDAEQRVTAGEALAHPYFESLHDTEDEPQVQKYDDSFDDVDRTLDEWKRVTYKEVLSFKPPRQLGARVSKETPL
Text: as §1

A further experiment addresses T3, IRAK4 (Homo sapiens, UniProt Q9NWZ3).
T3 sequence (Q9NWZ3 1-460): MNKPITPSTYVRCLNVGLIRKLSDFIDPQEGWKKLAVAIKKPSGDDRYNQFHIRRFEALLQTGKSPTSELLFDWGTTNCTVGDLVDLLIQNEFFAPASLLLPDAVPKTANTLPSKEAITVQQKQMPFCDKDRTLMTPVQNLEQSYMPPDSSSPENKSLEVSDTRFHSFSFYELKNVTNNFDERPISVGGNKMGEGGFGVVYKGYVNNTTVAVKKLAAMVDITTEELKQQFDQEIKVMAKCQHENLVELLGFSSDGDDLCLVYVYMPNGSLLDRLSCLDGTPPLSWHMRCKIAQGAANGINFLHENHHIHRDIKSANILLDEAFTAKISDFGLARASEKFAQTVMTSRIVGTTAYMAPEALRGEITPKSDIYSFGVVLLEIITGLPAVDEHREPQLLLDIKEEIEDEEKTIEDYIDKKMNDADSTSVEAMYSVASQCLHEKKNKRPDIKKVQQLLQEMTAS
Text: as §1

The target in a further experiment is T4, PRAK (Homo sapiens, UniProt Q8IW41).
T4 sequence (Q8IW41 1-473): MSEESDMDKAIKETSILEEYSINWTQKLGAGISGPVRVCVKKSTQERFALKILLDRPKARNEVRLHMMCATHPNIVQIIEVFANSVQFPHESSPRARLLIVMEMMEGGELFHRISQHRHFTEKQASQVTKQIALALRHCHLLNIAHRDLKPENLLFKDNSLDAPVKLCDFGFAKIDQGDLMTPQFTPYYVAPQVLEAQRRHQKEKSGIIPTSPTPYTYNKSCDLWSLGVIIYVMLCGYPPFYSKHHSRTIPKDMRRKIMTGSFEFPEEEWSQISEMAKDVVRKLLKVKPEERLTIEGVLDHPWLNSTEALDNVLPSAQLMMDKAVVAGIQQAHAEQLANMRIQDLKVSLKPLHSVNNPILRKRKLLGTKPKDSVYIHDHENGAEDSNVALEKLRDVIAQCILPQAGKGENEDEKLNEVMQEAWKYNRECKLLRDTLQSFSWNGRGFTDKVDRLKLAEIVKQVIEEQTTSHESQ
Text: as §1

The target of another experiment is MLK1 (Homo sapiens, UniProt P80192).
Text: as §1

The next experiment has as its target MNK2 (Homo sapiens, UniProt Q9HBH9).
Text: as §1

A further experiment deals with Src (Homo sapiens, UniProt P12931).
Text: as §1

The target in the next experiment is DAPK1 (Homo sapiens, UniProt P53355).
Text: as §1

Where two headings read alike, the source gives them in different places.

SRPK1, sequence (Q96SB4 whole entry): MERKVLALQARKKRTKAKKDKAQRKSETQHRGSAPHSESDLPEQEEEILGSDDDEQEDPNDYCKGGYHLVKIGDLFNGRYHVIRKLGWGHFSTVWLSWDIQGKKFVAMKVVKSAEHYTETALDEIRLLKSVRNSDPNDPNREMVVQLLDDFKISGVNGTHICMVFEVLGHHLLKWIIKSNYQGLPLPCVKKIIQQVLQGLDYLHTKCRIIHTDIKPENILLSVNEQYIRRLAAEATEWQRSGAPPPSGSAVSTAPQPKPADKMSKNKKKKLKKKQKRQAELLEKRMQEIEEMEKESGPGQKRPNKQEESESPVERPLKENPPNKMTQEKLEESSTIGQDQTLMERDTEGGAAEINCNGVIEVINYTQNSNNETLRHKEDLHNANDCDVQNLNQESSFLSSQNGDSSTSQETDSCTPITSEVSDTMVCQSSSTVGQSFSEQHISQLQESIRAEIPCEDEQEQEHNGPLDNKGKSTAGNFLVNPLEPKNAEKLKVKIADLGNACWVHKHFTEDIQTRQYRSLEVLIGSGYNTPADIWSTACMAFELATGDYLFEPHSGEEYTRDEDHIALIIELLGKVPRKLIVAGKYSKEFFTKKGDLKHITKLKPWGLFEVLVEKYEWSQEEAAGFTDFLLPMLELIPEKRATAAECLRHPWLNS
DAPK1, sequence (P53355 whole entry): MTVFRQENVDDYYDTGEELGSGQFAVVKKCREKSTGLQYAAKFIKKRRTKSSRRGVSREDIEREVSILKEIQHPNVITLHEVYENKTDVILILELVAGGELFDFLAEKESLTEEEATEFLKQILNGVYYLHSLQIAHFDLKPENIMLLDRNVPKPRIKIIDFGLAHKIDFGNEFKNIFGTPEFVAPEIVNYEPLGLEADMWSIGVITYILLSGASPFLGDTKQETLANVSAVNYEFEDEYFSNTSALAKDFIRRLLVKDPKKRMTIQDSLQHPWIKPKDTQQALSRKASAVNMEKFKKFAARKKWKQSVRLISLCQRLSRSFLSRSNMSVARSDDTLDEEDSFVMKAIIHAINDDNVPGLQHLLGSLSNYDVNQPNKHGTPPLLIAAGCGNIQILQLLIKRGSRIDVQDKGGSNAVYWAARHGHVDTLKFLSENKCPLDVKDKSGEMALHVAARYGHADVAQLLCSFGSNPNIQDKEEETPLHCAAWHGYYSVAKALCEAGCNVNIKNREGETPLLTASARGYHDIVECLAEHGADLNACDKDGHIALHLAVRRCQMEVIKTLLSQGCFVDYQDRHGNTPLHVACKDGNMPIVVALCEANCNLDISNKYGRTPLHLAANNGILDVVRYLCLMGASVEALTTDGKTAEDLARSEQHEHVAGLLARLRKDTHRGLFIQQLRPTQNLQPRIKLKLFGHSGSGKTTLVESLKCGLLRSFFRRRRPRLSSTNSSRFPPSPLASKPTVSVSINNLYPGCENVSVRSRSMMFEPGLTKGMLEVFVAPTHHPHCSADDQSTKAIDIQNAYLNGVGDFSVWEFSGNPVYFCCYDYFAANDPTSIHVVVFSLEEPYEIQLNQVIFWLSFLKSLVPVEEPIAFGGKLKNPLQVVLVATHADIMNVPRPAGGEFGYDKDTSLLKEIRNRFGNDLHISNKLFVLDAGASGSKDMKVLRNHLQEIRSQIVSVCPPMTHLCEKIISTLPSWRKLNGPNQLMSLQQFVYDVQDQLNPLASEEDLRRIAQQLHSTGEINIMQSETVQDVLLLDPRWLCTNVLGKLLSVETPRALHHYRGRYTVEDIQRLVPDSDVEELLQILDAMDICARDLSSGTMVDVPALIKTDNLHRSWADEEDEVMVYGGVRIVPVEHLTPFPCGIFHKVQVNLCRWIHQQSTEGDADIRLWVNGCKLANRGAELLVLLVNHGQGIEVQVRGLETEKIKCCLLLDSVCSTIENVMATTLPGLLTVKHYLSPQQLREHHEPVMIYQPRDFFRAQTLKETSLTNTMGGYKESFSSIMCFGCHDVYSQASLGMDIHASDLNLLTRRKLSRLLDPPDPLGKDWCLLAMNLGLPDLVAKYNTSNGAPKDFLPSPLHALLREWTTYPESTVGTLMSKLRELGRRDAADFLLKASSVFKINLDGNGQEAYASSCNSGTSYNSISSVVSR
Src, sequence (P12931 whole entry): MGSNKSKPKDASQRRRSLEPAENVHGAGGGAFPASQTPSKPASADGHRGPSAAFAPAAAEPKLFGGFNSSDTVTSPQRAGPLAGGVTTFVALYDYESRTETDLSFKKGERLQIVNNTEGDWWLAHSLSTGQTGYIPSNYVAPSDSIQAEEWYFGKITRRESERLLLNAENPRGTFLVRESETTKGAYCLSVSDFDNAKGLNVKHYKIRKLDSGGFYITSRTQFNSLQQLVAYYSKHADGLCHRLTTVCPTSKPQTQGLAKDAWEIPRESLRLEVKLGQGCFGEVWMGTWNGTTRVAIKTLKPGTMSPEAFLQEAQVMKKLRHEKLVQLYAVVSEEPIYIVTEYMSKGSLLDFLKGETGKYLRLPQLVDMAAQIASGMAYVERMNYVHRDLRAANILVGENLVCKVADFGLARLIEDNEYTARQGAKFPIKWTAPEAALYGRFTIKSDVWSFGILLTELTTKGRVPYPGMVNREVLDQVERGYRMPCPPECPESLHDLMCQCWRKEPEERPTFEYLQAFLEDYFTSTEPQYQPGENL
MNK2, sequence (Q9HBH9 whole entry): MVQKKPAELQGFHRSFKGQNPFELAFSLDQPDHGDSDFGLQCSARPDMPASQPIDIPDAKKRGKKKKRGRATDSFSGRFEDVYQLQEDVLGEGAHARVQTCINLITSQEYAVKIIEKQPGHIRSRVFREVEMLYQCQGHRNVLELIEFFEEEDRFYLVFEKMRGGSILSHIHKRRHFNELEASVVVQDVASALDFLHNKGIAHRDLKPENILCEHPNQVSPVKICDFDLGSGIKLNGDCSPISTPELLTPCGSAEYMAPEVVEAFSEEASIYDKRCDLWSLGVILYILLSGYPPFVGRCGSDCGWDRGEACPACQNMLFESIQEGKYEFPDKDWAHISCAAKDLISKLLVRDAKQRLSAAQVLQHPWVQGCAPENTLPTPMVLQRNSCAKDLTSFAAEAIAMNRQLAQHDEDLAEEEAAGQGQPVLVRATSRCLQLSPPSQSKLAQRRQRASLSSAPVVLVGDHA
MLK1, sequence (P80192 whole entry): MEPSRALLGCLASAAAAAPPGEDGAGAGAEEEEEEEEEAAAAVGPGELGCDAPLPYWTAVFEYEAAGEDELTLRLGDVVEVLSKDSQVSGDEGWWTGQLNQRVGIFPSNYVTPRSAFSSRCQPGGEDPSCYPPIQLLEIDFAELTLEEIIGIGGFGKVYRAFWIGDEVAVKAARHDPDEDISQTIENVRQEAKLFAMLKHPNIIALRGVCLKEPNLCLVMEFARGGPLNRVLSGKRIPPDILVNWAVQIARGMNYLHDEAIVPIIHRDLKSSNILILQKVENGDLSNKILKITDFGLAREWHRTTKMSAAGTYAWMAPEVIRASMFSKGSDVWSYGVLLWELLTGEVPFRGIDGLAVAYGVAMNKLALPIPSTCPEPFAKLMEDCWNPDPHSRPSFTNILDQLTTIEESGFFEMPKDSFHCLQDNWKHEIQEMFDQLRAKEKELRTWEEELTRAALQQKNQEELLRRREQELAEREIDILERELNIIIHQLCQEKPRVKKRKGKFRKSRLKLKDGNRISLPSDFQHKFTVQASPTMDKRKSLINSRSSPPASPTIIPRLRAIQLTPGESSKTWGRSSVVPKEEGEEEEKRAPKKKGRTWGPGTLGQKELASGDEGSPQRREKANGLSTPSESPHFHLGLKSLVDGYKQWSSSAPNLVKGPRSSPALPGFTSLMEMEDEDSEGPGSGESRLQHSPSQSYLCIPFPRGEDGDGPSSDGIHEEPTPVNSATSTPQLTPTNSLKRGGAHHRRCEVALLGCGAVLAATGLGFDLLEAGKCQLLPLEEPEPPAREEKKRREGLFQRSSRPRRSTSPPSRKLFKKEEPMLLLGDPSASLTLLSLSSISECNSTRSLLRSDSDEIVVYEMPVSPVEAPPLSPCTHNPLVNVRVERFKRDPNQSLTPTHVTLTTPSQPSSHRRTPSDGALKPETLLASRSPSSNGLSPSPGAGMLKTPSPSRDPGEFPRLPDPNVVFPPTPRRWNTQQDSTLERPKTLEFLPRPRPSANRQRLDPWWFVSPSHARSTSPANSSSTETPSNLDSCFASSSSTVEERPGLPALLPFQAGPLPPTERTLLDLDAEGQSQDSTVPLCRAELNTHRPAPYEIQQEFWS

For `COc1ccc(Cl)c(S(=O)(=O)Nc2ccc(-c3nc(OC[C@H]4CNCCO4)c4c(C)n[nH]c4n3)cc2)c1` [290-R, reference compound], the remaining activity (usually the signal under treatment as a percentage of the control signal) at 1 µM is 94% at SRPK1; 106% at LKB1; 112% at p38 gamma MAPK; 74% on IRAK4; 78% on PRAK; 9% on MLK1. The remaining activity at 1 µM was 119% on MNK2, 104% at Src and 87% at DAPK1.
For `Cc1ccc(F)c(S(=O)(=O)Nc2ccc(-c3nc(OC[C@H]4CNCCO4)c4cn[nH]c4n3)cc2)c1` [308-R, reference compound], the remaining activity at 1 µM on SRPK1 worked out at 119%; on LKB1, 96%; at p38 gamma MAPK, 111%; at IRAK4, 105%; at PRAK, 86%; at MLK1 it was 16%. For the same compound, the remaining activity at 1 µM on MNK2 was determined as 78%; at Src, 131%; at DAPK1, 91%.
Regarding `Cc1ccc(F)c(S(=O)(=O)Nc2ccc(-c3nc(OC[C@H]4CN(CCCCCCOCCOCCOCC(=O)N[C@H](C(=O)N5C[C@H](O)C[C@H]5C(=O)NCc5ccc(-c6scnc6C)cc5)C(C)(C)C)CCO4)c4cn[nH]c4n3)cc2)c1` [SGK3-PROTAC1], the remaining activity at 1 µM on SRPK1 (1 µM) worked out at 96%; on LKB1 (1 µM), 105%; on p38 gamma MAPK (1 µM) it was 107%; on IRAK4 (1 µM) it was 114%; at PRAK (1 µM), 115%; on MLK1 (1 µM), 82%. Further, the remaining activity at 1 µM amounted to 122% on MNK2 (1 µM), 83% on Src (1 µM) and 100% at DAPK1 (1 µM).
For the compound `Cc1ccc(F)c(S(=O)(=O)Nc2ccc(-c3nc(OC[C@H]4CN(CCCCCCOCCOCCOCC(=O)N[C@H](C(=O)N5C[C@@H](O)C[C@H]5C(=O)NCc5ccc(-c6scnc6C)cc5)C(C)(C)C)CCO4)c4cn[nH]c4n3)cc2)c1` [cisSGK3-PROTAC1], the remaining activity at 1 µM at SRPK1 (1 µM) came out at 104%; at LKB1 (1 µM) it was 112%; at p38 gamma MAPK (1 µM), 127%; at IRAK4 (1 µM) it was 98%; on PRAK (1 µM), 119%; at MLK1 (1 µM) it was 94%. Moreover, the figures for the remaining activity at 1 µM on MNK2 (1 µM), on Src (1 µM) and at DAPK1 (1 µM) were 122%, 87% and 108%, respectively.
